Consider 11 compounds from patent US20240208954A1, “OXADIAZOLE COMPOUND, PREPARATION METHOD THEREFOR, PHARMACEUTICAL COMPOSITION AND USE THEREOF” (SHANGHAI INSTITUTE OF MATERIA MEDICA, CHINESE ACADEMY OF …, priority 2020, published 2024).

Where two headings read alike, the source gives them in different places. Some results are limits rather than exact numbers.

Format in all cases: cell-based
The target of one assay is T1, S1PR1 (Homo sapiens, UniProt P21453).
T1 construct: host or cells: CHO-K1 co-expressing Ga15
As to the kind of experiment: Agonistic activity test on S1P receptors, FLIPR, CHO-K1/Ga15/EDG1 cells. As for the experimental part:
(§1) Instrument: FLIPR™ TETRA (Molecular Device)
Experimental materials: CHO-K1/Ga15/EDG1 cells constructed by GenScript autonomously.
(§2) Sample processing: Before the experiment, the working solution with the corresponding concentration was prepared by diluting with GPCR dilution buffer.
(§3) After 18-20 hours, the cell culture plat was taken out and added with dye working solution, and then the plate was placed in a 37° C./5% CO2 incubator for 1 hour, and finally equilibrated at room temperature for 15 minutes. Positive agonist working solution was added, and RFU values were detected and recorded. […] The positive agonist working fluid was added to the cell culture plate at the 21st second. […] The antagonistic mode detection program, the overall detection time of the instrument was 120 seconds, and positive antagonist working solution was added to the cell culture plate at the 21st second.
(§4) Data processing: Raw data were obtained via ScreenWorks (version 3.1) and saved as *FMD files on the Kingsray computer network system. Data were collected and analyzed using Excel and GraphPad Prism 6 software programs. For each well, the average fluorescence intensity value from 1 to 20 seconds was used as the baseline, and the maximum fluorescence intensity value from 21 to 120 seconds minus the minimum fluorescence intensity value from 21 to 120 seconds was the relative fluorescence intensity value (ARFU), from which the percentage activation or inhibition can be calculated based on the following equation.
(§5) % Activation Rate=(ΔRFUCompound-ΔRFUBackground)/(ΔRFUAgonist control-ΔRFUBackground)×100%
(§6) The data was analyzed using GraphPad Prism 6 with a four-parameter equation to calculate the EC50 and IC50 values. The four-parameter equation was as follows: y=Bottom+(Top-Bottom)/(1+10^((LogEC50/IC50-X)*HillSlope)), wherein X is the Log value of the concentration and Y was the inhibition rate.

The next assay deals with T2, S1P4 (Homo sapiens, UniProt O95977).
T2 sequence (O95977 1-384): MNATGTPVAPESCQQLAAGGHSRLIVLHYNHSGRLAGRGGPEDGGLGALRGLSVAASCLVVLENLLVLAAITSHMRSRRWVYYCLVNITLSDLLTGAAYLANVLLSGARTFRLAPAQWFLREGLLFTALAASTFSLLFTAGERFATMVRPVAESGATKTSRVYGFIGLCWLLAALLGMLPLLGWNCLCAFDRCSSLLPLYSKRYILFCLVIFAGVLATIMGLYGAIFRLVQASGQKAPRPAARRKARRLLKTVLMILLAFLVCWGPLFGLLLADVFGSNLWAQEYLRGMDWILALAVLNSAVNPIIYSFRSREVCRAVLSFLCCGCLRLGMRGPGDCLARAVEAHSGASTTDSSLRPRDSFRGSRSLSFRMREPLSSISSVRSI
The experiment in a line: Subtype selectivity study, method of Experimental Example 1. As for the experimental part: (§7) Experimental method: CHO-K1/Ga15/EDG1 cells stably expressing EDG1 receptor were cultured in a 10 cm culture dish in a 37° C./5% CO2incubator, and digested when the confluence rate reached 80%-85%. The cells in collected cell suspension were inoculated into 384 microtiter plates at appropriate density, and then placed in a 37° C./5% CO2 incubator and continue to incubate for at least 18 hours before using for experiments. After 18-20 hours, the cell culture plat was taken out and added with dye working solution, and then the plate was placed in a 37° C./5% CO2 incubator for 1 hour, and finally equilibrated at room temperature for 15 minutes. Positive agonist working solution was added, and RFU values were detected and recorded. The 384 microplates, cell plates and tip box with positive agonist working solution were placed into FLIPRTM TETRA and the agonist mode assay program was run with an overall assay time of 120 seconds. The positive agonist working fluid was added to the cell culture plate at the 21st second. 384 microplate, cell plate and gun head box containing the positive antagonist working fluid were put into the FLIPRTM TETRA. The antagonistic mode detection program, the overall detection time of the instrument was 120 seconds, and positive antagonist working solution was added to the cell culture plate at the 21st second. Data processing: Raw data were obtained via ScreenWorks (version 3.1) and saved as *FMD files on the […] computer network system. Data were collected and analyzed using Excel and GraphPad Prism 6 software programs. […] The four-parameter equation was as follows: y=Bottom+(Top-Bottom)/(1+10^((LogEC50/IC50-X)*HillSlope)), wherein X is the Log value of the concentration and Y was the inhibition rate. The S1P receptor selectivity was tested for different subtypes using the method described in Experimental Example 1.

Another assay addresses S1P2 (Homo sapiens, UniProt O95136). The description is as above. As for the experimental part:
as §7

The target in a further assay is S1P5 (Homo sapiens, UniProt Q9H228). The assay is described as above. The procedure: as §7
The target of a further assay is S1PR3 (Homo sapiens, UniProt Q99500). As to the kind of experiment: Agonistic activity test on S1P receptors, FLIPR. The procedure: as §1, §2, §3, §4, §5, §6
Setting [1] is: CHO-K1/Ga15/EDG1 cells, FLIPR agonist mode, read-out: S1PR1 EC50.
[2] abbreviates: FLIPR agonist mode, read-out: S1PR3 EC50.
[3] abbreviates: subtype selectivity study, read-out: S1P3 EC50.

T1 sequence (P21453 whole entry): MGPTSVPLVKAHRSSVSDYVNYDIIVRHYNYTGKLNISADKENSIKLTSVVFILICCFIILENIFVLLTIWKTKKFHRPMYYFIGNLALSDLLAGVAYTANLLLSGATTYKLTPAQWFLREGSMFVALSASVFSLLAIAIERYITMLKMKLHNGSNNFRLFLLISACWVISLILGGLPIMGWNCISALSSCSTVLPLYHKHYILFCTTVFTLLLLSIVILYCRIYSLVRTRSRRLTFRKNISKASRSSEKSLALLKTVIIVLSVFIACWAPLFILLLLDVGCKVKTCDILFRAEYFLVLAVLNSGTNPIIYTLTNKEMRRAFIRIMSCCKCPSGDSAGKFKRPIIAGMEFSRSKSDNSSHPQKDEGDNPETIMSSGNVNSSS
Sequence of S1PR3 (Q99500 whole entry, species assumed): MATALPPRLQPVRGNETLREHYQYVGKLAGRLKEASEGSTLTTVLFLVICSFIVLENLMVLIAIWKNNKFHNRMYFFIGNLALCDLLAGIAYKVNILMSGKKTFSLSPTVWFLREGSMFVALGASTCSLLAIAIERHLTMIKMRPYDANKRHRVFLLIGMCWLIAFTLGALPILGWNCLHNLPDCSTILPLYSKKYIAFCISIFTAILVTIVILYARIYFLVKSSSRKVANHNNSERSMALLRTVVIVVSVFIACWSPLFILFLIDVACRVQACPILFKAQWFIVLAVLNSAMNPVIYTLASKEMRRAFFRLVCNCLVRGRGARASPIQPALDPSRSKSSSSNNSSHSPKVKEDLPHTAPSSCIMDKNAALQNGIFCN
Sequence of S1P2 (O95136 whole entry, species assumed): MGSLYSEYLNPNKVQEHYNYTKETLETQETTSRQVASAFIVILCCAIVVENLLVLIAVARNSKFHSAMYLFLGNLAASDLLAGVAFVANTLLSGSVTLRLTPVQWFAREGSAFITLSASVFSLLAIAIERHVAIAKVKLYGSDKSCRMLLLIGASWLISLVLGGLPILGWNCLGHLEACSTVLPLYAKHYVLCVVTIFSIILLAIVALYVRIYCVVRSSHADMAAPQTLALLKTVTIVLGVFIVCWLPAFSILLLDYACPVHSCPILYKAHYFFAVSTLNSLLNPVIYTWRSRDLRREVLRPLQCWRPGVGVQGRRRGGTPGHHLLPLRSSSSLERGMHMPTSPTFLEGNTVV
Sequence of S1P5 (Q9H228 whole entry, species assumed): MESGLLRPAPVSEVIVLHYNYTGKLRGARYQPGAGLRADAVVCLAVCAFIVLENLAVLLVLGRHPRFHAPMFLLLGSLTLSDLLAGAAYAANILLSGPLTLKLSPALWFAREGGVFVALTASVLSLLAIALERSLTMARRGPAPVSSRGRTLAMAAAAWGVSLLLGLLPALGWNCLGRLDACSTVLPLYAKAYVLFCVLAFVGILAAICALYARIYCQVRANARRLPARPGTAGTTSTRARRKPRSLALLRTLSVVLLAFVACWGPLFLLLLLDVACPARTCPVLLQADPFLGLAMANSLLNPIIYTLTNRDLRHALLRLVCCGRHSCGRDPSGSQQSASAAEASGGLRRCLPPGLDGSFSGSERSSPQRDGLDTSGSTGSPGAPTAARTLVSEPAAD

One may read the EC50 as the concentration needed to bring the measured effect to its halfway point. For `CCc1cc(/C(C)=N/OCc2ccc(C3CCCCC3)c(C(F)(F)F)c2)ccc1CN1CC(C(=O)O)C1` [Siponmod, reference compound], the EC50 is 0.547 µM on S1PR1 (setting [1]); 0.547 µM at S1PR1 (subtype selectivity study, read-out: S1P1 EC50); 750 nM on S1P4; greater than 10 µM at S1P2; 0.98 nM on S1P5; greater than 10 µM at S1PR3 (setting [2]). In addition, the EC50 at S1PR3 (setting [3]) is greater than 1 µM.

In the case of `CC(C)Oc1ccc(-c2nc(-c3cccc4c3CC[C@@H]4NCCO)no2)cc1C#N` [Ozanimod], the EC50 is greater than 10000 nM at S1P4; greater than 10 µM on S1P2; 10.7 nM on S1P5; greater than 10 µM at S1PR3 (setting [2]); 2.62 µM on S1PR3 (setting [3]).

With `N#Cc1ccc(-c2nc(-c3ccc(CN4CC(C(=O)O)C4)c4ccccc34)no2)cc1` [Compound A22, 1-((4-(5-(4-cyanophenyl)-1,2,4-oxadiazol-3-yl)naphthalen-1-yl)methyl) azetidine-3-carboxylic acid hydrochloric acid], the EC50 at S1PR1 (setting [1]) was 1.13 µM; at S1PR3 (setting [2]), greater than 10 µM.

As for `CC(C)Oc1ccc(-c2nc(-c3ccc(CN4CC(C(=O)O)C4)c4ccccc34)no2)cc1Br` [Compound A11, 1-((4-(5-(3-bromo-4-isopropoxyphenyl)-1,2,4-oxadiazol-3-yl)naphthalen-1-yl)methyl) azetidine-3-carboxylic acid hydrochloric acid], the figures for the EC50 on S1PR1 (setting [1]) and at S1PR3 (setting [2]) were 1.37 µM and greater than 10 µM, respectively.

Consider `Cn1c(-c2nc(-c3ccc(CN4CC(C(=O)O)C4)c4ccccc34)no2)cc2ccccc21` [Compound A37, 1-((4-(5-(1-methyl-1H-indole-2-yl)-1,2,4-oxadiazol-3-yl)naphthalen-1-yl)methyl) azetidine-3-carboxylic acid hydrochloric acid], for which the EC50 was greater than 10 µM on S1PR1 (CHO-K1/Ga15/EDG1 cells, FLIPR agonist mode, cells printed in μM, read-out: S1PR1 EC50) and greater than 10 µM on S1PR3 (setting [2]).

For the compound `CC(C)(C)Oc1ccc(-c2nc(-c3ccc(CN4CC(C(=O)O)C4)c4ccccc34)no2)cc1` [Compound A15, 1-((4-(5-(4-(tert-butoxy)phenyl)-1,2,4-oxadiazol-3-yl)naphthalen-1-yl)methyl) azetidine-3-carboxylic acid hydrochloric acid], the EC50 was 1.23 µM on S1PR1 (setting [1]) and greater than 10 µM on S1PR3 (setting [2]).

Take `O=C(O)C1CN(Cc2ccc(-c3noc(-c4ccc5[nH]ccc5c4)n3)c3ccccc23)C1` [Compound A35, 1-((4-(5-(1H-indole-5-yl)-1,2,4-oxadiazol-3-yl)naphthalen-1-yl)methyl) azetidine-3-carboxylic acid hydrochloric acid]: the EC50 at S1PR1 (setting [1]) was 1.96 µM; on S1PR3 (setting [2]), greater than 10 µM.

Regarding `O=C(O)C1CN(Cc2ccc(-c3noc(-c4ccc(F)cc4)n3)c3ccccc23)C1` [Compound A23, 1-((4-(5-(4-fluorophenyl)-1,2,4-oxadiazol-3-yl)naphthalen-1-yl)methyl) azetidine-3-carboxylic acid hydrochloric acid], the EC50 was 1.96 µM on S1PR1 (setting [1]) and greater than 10 µM on S1PR3 (setting [2]).

For `CCCc1ccc(-c2nc(-c3ccc(CN4CC(C(=O)O)C4)c4ccccc34)no2)cc1` [Compound A21, 1-((4-(5-(4-propylphenyl)-1,2,4-oxadiazol-3-yl)naphthalen-1-yl)methyl) azetidine-3-carboxylic acid hydrochloric acid], the EC50 was 1.27 µM at S1PR1 (setting [1]) and greater than 10 µM on S1PR3 (setting [2]).

For `O=C(O)C1CN(Cc2ccc(-c3noc(-c4ccccn4)n3)c3ccccc23)C1` [Compound A29, 1-((4-(5-(pyridin-2-yl)-1,2,4-oxadiazol-3-yl)naphthalen-1-yl)methyl) azetidine-3-carboxylic acid hydrochloric acid], the EC50 at S1PR1 (setting [1]) was 0.993 µM; on S1PR3 (setting [2]) it was greater than 10 µM.

Regarding `CC(C)Oc1ccc(-c2nc(-c3ccc(CN4CC(C(=O)O)C4)c4ccccc34)no2)cc1` [Compound A14, 1-((4-(5-(4-isopropoxyphenyl)-1,2,4-oxadiazol-3-yl)naphthalen-1-yl)methyl) azetidine-3-carboxylic acid hydrochloric acid], the EC50 is 1.67 µM on S1PR1 (setting [1]) and greater than 10 µM at S1PR3 (setting [2]).
